Entries after “also recorded” stand apart in the source; their conditions may differ.
Assays:
[1] = test system: renal ischemia reperfusion injury; test: Bilateral renal ischemia/reperfusion (I/R) injury in rats, 24 hours after reperfusion (Study II); type: in vivo, rat
Method: All studies used male Sprague-Dawley rats (250-300 g) that were purchased from Envigo (Indianapolis, IN). Rats were anesthetized with a cocktail of ketamine (100 mg·kg^−1, KetoVed, Vedco Inc, St. Joseph, MO) and xylazine (50 mg·kg^−1, AnaSed, Lloyd Inc, Shenandoah IA). Rats were placed on a heated surgical table to maintain body temperature. A midline incision and either unilateral (left) or bilateral renal ischemia (as indicated in Results) was induced by applying micro-aneurism clamps on the renal pedicles for a period of 40 min. Re-establishment of perfusion was verified by visual examination following removal of the clamps. Rats were provided post-operative analgesia using buprenorphine-SR (1 mg·kg^−1).
Rats were allowed to recover for various periods of time as described in the Results. In Study I, lymphocytes were studied in vitro after recovery for either 2 or 7 days following I/R or sham surgery for evaluation of function in vitro or for FACS analysis. In Study II, the effect of SOCE on kidney injury was studied with the inhibitor YM58483/BPT2 (N-[4-[3,5-Bis(trifluoromethyl)-1H-pyrazol-1-yl]phenyl]-4-methyl-1,2,3-thiadiazole-5-carboxamide; Tocris/Bio-Techne Minneapolis, MN). Rats were pretreated p.o. 2-3 hours prior to surgery with YM58483.BPT2 (1 mg·kg^−1) in sugar-free chocolate pudding following dilution in 100% EtOH, at, a dose previously shown to affect T cell activation in rats. In some experiments, rats were also treated with the IL17Rc (150 ng/day i.p; R&D Systems). In addition, one experiment utilized a model of rhabdomyolysis, induced by injection of 50% glycerol (10 ml/kg) into the hindlimb muscle of rats following 16 hours of water restriction.
To measure creatinine, tail blood was collected in heparin containing tubes and centrifuged to collect plasma. Plasma creatinine was measured using a Pointe Scientific Analyzer and Creatinine Assay reagents using methods outlined by the manufacturer (Pointe Scientific, Canton MI). Urine was collected for 24 hours by placing rats in metabolic cages and urine volume was determined gravimetrically. Urine creatinine was measured using a colorimetric assay adopted for microplate readers. Creatinine clearance was measured using UCr*V/PCr. […]
Freshly harvested kidneys were minced and digested in liberase (2 μg/ml. Roche, Indianapolis IN) for 15 min at 37° C. using Gentle MACs (Miltenyli, San Diego, CA). The digested tissue was filtered through a 100-μm mesh and washed with RPMI containing 10% fetal bovine serum (Invitrogen). Mononuclear cells were isolated using Percol (Sigma) density gradient centrifugation.
(§1) To evaluate protein expression of IL17 or Orai1, Orai2 or Orai3, cells were restimulated with PMA and ionomycin for 6 hours in the presence of monensin (Golgistop, 1 μg·ml, BD Biosciences) permeabilized with saponin ([…]) and stained with relevant antibody. Cells were scanned using flow cytometry (FACSCalibur, BD Biosciences, San Jose, CA) and scans were analyzed using Flowjo software (Tree Star, Ashland, OR).
The effect of SOCE on early ischemic kidney injury was studied with the inhibitor YM58483/BPT2 (N-[4-[3,5-Bis(trifluoromethyl)-1 H-pyrazol-1-yl]phenyl]-4-methyl-1,2,3-thiadiazole-5-carboxamide; Tocris/Bio-Techne Minneapolis, MN). Rats were pretreated 2-3 hours prior to surgery, p.o. in sugar-free chocolate pudding following dilution in 100% EtOH, at 1 mg·kg^−1, a dose previously shown affect T cell activation in rats. To evaluate if SOCE influences Th17 cells in AKI, rats were fed YM58483/BPT2 approximately 2 hours prior to […] and reperfusion. […] YM58483/2BPT2 also attenuated the infiltration of total CD4+ and CD8+ T-cells, B-cells, and dendritic cells following I/R (FIGS. 3C, 3D, 3E, and 3F).

AKI-primed CD4+ cells [2] = test: In vitro stimulation of AKI-primed kidney CD4+ cells with Ang II and elevated Na+, IL17 response; type: cell-based, rat; conditions: inhibitor 10 μM; Ang II 10^-7 M and 170 mM Na+; 12-14 hours; cells 7 days post I/R
Method: Total RNA was obtained from kidney using Trizol and the Zymogen RNA extraction kit and cDNA was prepared using MMLV enzyme (Invitrogen, Carlsburg, CA). Quantitative real time PCR (qPCR) using gene specific primers was performed using ABI 7500 (Applied Biosystems, Foster City, CA). mRNA values were calculated using 2^−ΔΔCt. Specific primers sequences for IL-6 (catalog #Rn01410330_m1), Kim-1 (#Rn00597703_m1) and IL17 (Rn01757168_m1) were purchased from ThermoFisher (Waltham, MA).
as §1
CD4+T cells were isolated using the MACS Pan-T cell microbead separation kit (Miltenyl, Glabach, Germany). T cells were stimulated with plate bound anti-CD3 (precoated with 2 μg/mL) and soluble anti-CD28 (1 μg/mL). Cells (2.5×10^5 in 0.25 ml) were incubated 12-14 hours at 37° C. in RPMI medium supplemented with 10% FBS (Invitrogen) in a 48-well plate. Cells were challenged with Ang II (Sigma, 10^−7M) and raising the extracellular Na+ from 140 mM to 170 mM, using a 1 M NaCl solution. Calcium channel inhibitors 2ABP (10 μM, Sigma) AnCoA4 (10 μM, Millipore, Burlington, MA) and YM58483/BTP2 (10 μM) were included to evaluate effects on IL-17.

AKI-primed CD4+ cells [3] = test: Fura-2 imaging of intracellular Ca2+ responses in AKI-primed CD4+ cells; type: cell-based, rat; conditions: superfusate with Ang II and elevated Na+; to levels similar to sham
Method: To assess Ca^2+ responses, fura2 imaging was performed. Briefly, isolated CD4+ T cells were loaded with fura-2AM (2.5 μM, Sigma, St. Louis, MO) for 45 min, washed, placed on poly-lysine (Sigma) coated coverslips and placed in a superfusion chamber with physiological salt solution (PSS) containing 2 mM Ca^2+. The chamber was mounted on an inverted epifluorescence microscope and signal measured with alternating excitation at 340 and 380 nm and emission at 510 nm using the InCa^2+-imaging system (Intracellular Imaging Systems, Cincinnati, OH). Data were acquired at 1.5 Hz and representative tracings were smoothed to the 10 nearest neighbor points using GraphPad Prism. For analysis, an increase in signal intensity of >1 standard deviation from baseline was considered a positive response. Frequency of responding cells was determined from an average 53±19 cells for each animal.

[4] = 24 hours following I/R, listed as YM58483/2BPT2
[5] = 24 hours following I/R, listed as YM58483/BPT
[6] = 24 hours following ischemia reperfusion, mean ± S.E.

Cc1nnsc1C(=O)Nc1ccc(-n2nc(C(F)(F)F)cc2C(F)(F)F)cc1 [YM58483/BPT2, N-[4-[3,5-Bis(trifluoromethyl)-1H-pyrazol-1-yl]phenyl]-4-methyl-1,2,3-thiadiazole-5-carboxamide]
mRNA expression of kidney injury marker-1 (Kim-1) ([1]; 24 hours after reperfusion, 1 mg/kg p.o. pretreatment): significantly attenuated
level of renal injury as plasma creatinine (vs vehicle) ([1]; 24 hours after reperfusion, YM58483 1 mg/kg p.o. 2-3 hours prior to surgery): significantly attenuated; also recorded: significantly reduced
CD8+ cells in kidney (vs vehicle) ([1]; 24 hours following I/R): did not significantly effect
Th1 cells post-ischemia ([1]; 24 hours following I/R): did not significantly influence
Th2 cells post-ischemia ([1]; 24 hours following I/R): did not significantly influence
infiltration of B-cells in kidney ([1]; 24 hours following I/R): attenuated
infiltration of dendritic cells in kidney ([1]; 24 hours following I/R): attenuated
kidney CD4+/IL17+ cells (vs vehicle) ([1]; 24 hours following I/R): reduction was observed
reduction of total IL17 expressing cells relative to vehicle ([1]; 24 hours following I/R, 1 mg/kg p.o. pretreatment): ~78%
infiltration of total CD4+ T-cells in kidney (vs vehicle) ([1]; 24 hours following I/R, listed as YM58483/2-BPT): attenuated
CD8+ cells in kidney (vs vehicle) [1, 4]: attenuated
infiltration of total CD4+ T-cells in kidney (vs vehicle) [1, 4]: attenuated
infiltration of total CD4+ T-cells in kidney (vs vehicle) [1, 5]: significantly reduced
kidney CD4+/IL17+ cells (vs vehicle) [1, 5]: significantly reduced
CD4+ renal lymphocyte content [1, 6]: 26156 ± 4365 cells/gram
CD4+/IL-17+ cells [1, 6]: 2020 ± 731 cells/gram
CD8+ cells renal lymphocyte content [1, 6]: 8410 ± 1386 cells/gram
CD8+IL-17+ cells [1, 6]: 127 ± 23 cells/gram
Serum Creatinine [1, 6]: 3.7 ± 0.6 mg/dL
Total IL-17+ cells [1, 6]: 9334 ± 4293 cells/gram
increase in IL17+ cells (IL17 protein, FACS) (AKI-primed CD4+ cells [2]): completely blocked
increase of IL17 mRNA (AKI-primed CD4+ cells [2]): completely blocked
percentage of Ca2+-responding cells (AKI-primed CD4+ cells [3]): significantly attenuated
